Data on two molecules can be found in patent US20160199535A1, “Controlled and Localized Release of Retinoids to Improve Neointimal Hyperplasia” (VesselTek BioMedical LLC, priority 2008, published 2016).

Converted amounts (≈) assume the structure as drawn.

In data set [1] the test system is human monocytic THP-1 cells. Briefly: Assessment of inflammatory potential, marker expression via ELISA. The settings on record: THP-1 cell suspension exposed to material films, LPS positive control. The format is cell-based. As to the method: For assessment of inflammatory potential, a suspension of human monocytic THP-1 cells was exposed to POC, TCP, PLGA, and ePTFE films. Afterwards, the expression of tissue factor, IL-6, and TNF-α was measured via ELISA. Addition of lipopolysaccharide (LPS) to the cells was used as a positive control.

The conditions of data set [2]: cited from earlier work.

On to lipopolysaccharide [LPS], for which, in data set [1], the TNF-α expression is 874 ± 531 and the Tissue factor expression was 536 ± 81.

Turning to `CC1=C(/C=C/C(C)=C/C=C/C(C)=C/C(=O)O)C(C)(C)CCC1` [ATRA, All-trans retinoic acid], the “solubility in dimethylsulfoxide (DMSO)” value in data set [2] (DMSO) was “soluble”. The solubility in chloroform result in data set [2] (chloroform) is “soluble”. In data set [2] (dichloromethane), the solubility in dichloromethane result is recorded as “soluble”. The solubility in ethanol in data set [2] (ethanol) was 3000 µg/mL (≈ 9.99 mM). Also, in data set [2] (water), the solubility in water entry is on record as “not readily soluble”.
